In ChEMBL document CHEMBL4602710 (ACS Med Chem Lett, 2020):
pEC50, pIC50: −log10 of the molar value. ≈ marks a conversion by molar mass, not a printed value.

Key:
[1] = Distribution coefficient, logD of compound; assay type: physicochemical; details: octanol/water
[2] = target: T1, Tyrosine-protein kinase SYK (Homo sapiens, UniProt P43405); assay: Inhibition of SYK in human Ramos cells assessed as reduction in antihuman IgM F(ab)2-induced phosphorylation of BLNK at Y96 residue preincubated for 1 hr followed by antihuman IgM F(ab)2 stimulation for 5 mins by MSD high bind plate assay; assay type: cell-based
[3] = target: T1, Tyrosine-protein kinase SYK; assay: Inhibition of SYK (unknown origin) using XL665-labeled peptide as substrate in presence of ATP measured after 30 mins by TR-FRET assay
[4] = Solubility of compound at pH 7.4; assay type: physicochemical; details: buffer
[5] = Clearance in human liver microsomes; assay type: ADME, Microsome
[6] = Solubility of compound at pH 2; assay type: physicochemical; details: buffer
[7] = target: T1, Tyrosine-protein kinase SYK; assay: Inhibition of SYK in human whole blood assessed as reduction in anti-FCepsilonR1 mAb-induced basophil activation by measuring decrease in CD63 surface expression incubated for 60 mins followed by anti-FCepsilonR1 mAb stimulation for 20 mins by flow cytometry analysis; assay type: tissue-based
[8] = Efflux ratio of apparent permeability of compound in human Caco2 cells; assay type: ADME, cell-based; details: Caco-2
[9] = Apparent permeability of compound in human Caco2 cells; assay type: ADME, cell-based; details: Caco-2

Row | SMILES | logD [1] | pEC50 [2] | pIC50 [3] | solubility [4] | CLhep predicted [5] | solubility [6] | pEC50 [7] | efflux ratio [8] | Papp [9]
1 | c1cn2cc(-c3ccc4cn[nH]c4c3)nc(Nc3ccc(N4C[C@H]5CC[C@@H](C4)O5)cc3)c2n1 | 1.9 to 2.7 | 6.79 | 8.28 | < 1 µM | 9.5 mL/min/kg | 24 µM (≈ 10.5 µg/mL) | 5.63 | – | –
2 | OC1CCN(c2ccc(Nc3nc(-c4ccc5cn[nH]c5c4)cn4ccnc34)cc2)CC1 | 1.9 to 2.7 | 7.48 | 8.92 | 3 µM (≈ 1.28 µg/mL) | 4.67 mL/min/kg | 84 µM (≈ 35.7 µg/mL) | 6.23 | – | –
3 | Nc1cncc(-c2cn3ccnc3c(Nc3ccc(N4CCN(C5COC5)CC4)cc3)n2)c1 | – | 6.79 | 7.54 | 87 µM (≈ 38.5 µg/mL) | 4.33 mL/min/kg | 98 µM (≈ 43.4 µg/mL) | 6.71 | – | –
4 | C[C@@H]1CN(c2ccc(Nc3nc(-c4ccc5cn[nH]c5c4)cn4ccnc34)cc2)C[C@H](C)O1 | 1.9 to 2.7 | 7.35 | 8.31 | < 1 µM | 2.5 mL/min/kg | 86 µM (≈ 37.8 µg/mL) | 6.05 | – | –
5 | c1cn2cc(-c3ccc4cn[nH]c4c3)nc(Nc3ccc(N4CCOCC4)cc3)c2n1 [ENTOSPLETINIB] | 2.5 | – | – | 6 µM (≈ 2.47 µg/mL) | 5.17 mL/min/kg | 13 µM (≈ 5.35 µg/mL) | – | – | –
6 | OC1CN(c2ccc(Nc3nc(-c4ccc5cn[nH]c5c4)cn4ccnc34)cc2)C1 | 1.9 to 2.7 | 7.24 | 7.95 | 4 µM (≈ 1.59 µg/mL) | 12.5 mL/min/kg | 78 µM (≈ 31 µg/mL) | 6.14 | – | –
7 | c1cn2cc(-c3cnc4nc[nH]c4c3)nc(Nc3ccc(N4CCN(C5COC5)CC4)cc3)c2n1 | – | 6.54 | 7.87 | < 1 µM | 3 mL/min/kg | > 100 µM | 6.51 | 5.8 | 2.7 ×10⁻⁶ cm/s
8 | c1cn2cc(-c3ccc4cn[nH]c4c3)nc(Nc3ccc(N4CC5CC(C4)O5)cc3)c2n1 | 1.9 to 2.7 | 7.17 | 7.21 | 2 µM (≈ 0.847 µg/mL) | 5.33 mL/min/kg | 25 µM (≈ 10.6 µg/mL) | 6.08 | – | –
9 | c1cn2cc(-c3ccc4cn[nH]c4c3)nc(Nc3ccc(N4C[C@@H]5C[C@H]4CO5)cc3)c2n1 | 1.9 to 2.7 | 6.95 | 8.30 | < 1 µM | 11 mL/min/kg | 79 µM (≈ 33.5 µg/mL) | 5.82 | – | –
10 | c1cn2cc(-c3ccc4nc[nH]c4c3)nc(Nc3ccc(N4CCN(C5COC5)CC4)cc3)c2n1 | – | 7.33 | 7.76 | 49 µM (≈ 22.9 µg/mL) | < 1.83 mL/min/kg | > 100 µM | 7.05 | 38 | 0.4 ×10⁻⁶ cm/s
11 | c1cn2cc(-c3cnc4cc[nH]c4c3)nc(Nc3ccc(N4CCN(C5COC5)CC4)cc3)c2n1 | – | 7.34 | 8.16 | 1 µM (≈ 0.467 µg/mL) | 3.83 mL/min/kg | > 100 µM | 7.11 | – | –
12 | c1cn2cc(-c3ccc4cc[nH]c4n3)nc(Nc3ccc(N4CCN(C5COC5)CC4)cc3)c2n1 | – | 7.74 | 7.95 | < 1 µM | 6.33 mL/min/kg | 99 µM (≈ 46.2 µg/mL) | 6.89 | – | –
13 | c1cn2cc(-c3cnc4cn[nH]c4c3)nc(Nc3ccc(N4CCN(C5COC5)CC4)cc3)c2n1 | – | 7.89 | 8.55 | 1 µM (≈ 0.468 µg/mL) | 3.17 mL/min/kg | > 100 µM | 7.33 | – | –
14 | O=S1(=O)CCN(c2ccc(Nc3nc(-c4ccc5cn[nH]c5c4)cn4ccnc34)cc2)CC1 | 1.9 to 2.7 | 7.48 | 7.71 | 3 µM (≈ 1.38 µg/mL) | 8.17 mL/min/kg | 26 µM (≈ 11.9 µg/mL) | 5.93 | – | –
15 | c1cn2cc(-c3ccc4cc[nH]c4c3)nc(Nc3ccc(N4CCN(C5COC5)CC4)cc3)c2n1 | – | 7.59 | 7.80 | 15 µM (≈ 6.98 µg/mL) | 5.17 mL/min/kg | > 100 µM | 6.42 | – | –
16 | COCCN1CCN(c2ccc(Nc3nc(-c4ccc5cn[nH]c5c4)cn4ccnc34)cc2)CC1 | 1.9 to 2.7 | 7.64 | 9.05 | < 1 µM | 8.67 mL/min/kg | > 100 µM | 6.57 | – | –
17 | Nc1cccc(-c2cn3ccnc3c(Nc3ccc(N4CCN(C5COC5)CC4)cc3)n2)c1 | – | 6.66 | 7.26 | 84 µM (≈ 37.1 µg/mL) | 3.83 mL/min/kg | > 100 µM | 6.03 | – | –
18 | c1cn2cc(-c3ccc4c(n3)NCCO4)nc(Nc3ccc(N4CCN(C5COC5)CC4)cc3)c2n1 | – | 6.97 | 7.36 | 2 µM (≈ 0.969 µg/mL) | 4.33 mL/min/kg | 99 µM (≈ 48 µg/mL) | 6.63 | – | –
